19 compounds from US20260224758A1, “ALPHA-SYNUCLEIN BINDERS AND METHODS OF USE” (Merck Sharp & Dohme LLC, priority 2023, published 2026) can be followed below.

SMILES strings stand for the structures. pKi: −log10 of the molar value. Where two headings read alike, the source gives them in different places.

A word on the pKi: it is −log10 of the Ki, conventionally taken in molar units.

Experiment [1] has as its target T1, triton-extracted alpha-synuclein from PD Tissue (Homo sapiens, UniProt P37840).
T1 construct: tissue Analytic Biological Services Inc; host or cells: human PD temporal cortex grey matter, Triton X-100 insoluble pellet
In words: Alpha-synuclein tissue homogenate binding assay (Assay 1), displacement of [^3H]-1000. The note with it: for Selectivity ratio (Assay 2/Assay 1): Aβ Tissue Ki / α-synuclein Tissue Ki; for pKi: read-out: α-synuclein Tissue Ki (Assay 1). On the procedure: Frozen human brain tissues from PD patients were purchased from Analytic Biological Services Inc. The samples were post-mortem tissues from donors with clinical diagnosis of late stage of PD. Alpha-synuclein, tau and amyloid burden was determined through a combination of immunohistochemistry on frozen thin coronal sections, as well as alpha Lisa-based quantification of protein levels in a detergent insoluble protein fraction. A tissue sample of temporal cortex was identified from one donor as having moderate to high alpha-synuclein burden, low amyloid and minimal to no tau pathology. The detergent insoluble fraction of temporal cortex from this patient was used to support homogenate binding studies. Grey matter was dissected out of the temporal cortex tissue with a dissecting blade and minced with fine dissecting scissors. […] Homogenates were centrifuged at 100,000×g for 45 minutes. The pellet was resuspended in TBS-TX buffer, using a Polytron at highest setting for 30 seconds at 4° C. Homogenates were centrifuged at 100,000×g for 45 minutes and the pellet was resuspended in TBS-TX buffer. A BCA protein assay was performed on the final homogenate to determine the protein concentration. […] For displacement a-synuclein binding assay, compounds and control were solvated in dimethyl sulfoxide (DMSO) and transferred using focused acoustic energy by an Echo 655 liquid handling instrument (Beckman Coulter, Indianapolis, IN) into designated wells of uniquely bar coded 96-well v-bottom low binding polypropylene microplates (Thermo Scientific, 249946). Compound dose response curves were prepared in a 10-point, 3-fold fashion within columns 2-11 of the microplate from high to low compound concentrations. […] Liquid-handling steps for dispensing insoluble fractions of PD brain homogenates and radioligand were performed using a Bravo automated liquid handling platform equipped with a 96LT disposable tip head (Agilent Technologies, Santa Clara. CA). […] The incubation was terminated by rapid filtration through UniFilter-96 GF/C microplates (pre-treated for 30 minutes with 0.2% Polyethylenimine at 4° C.) by using a FilterMate Harvester (PerkinElmer). […] The bottom of each UniFilter-96 GF/C microplate was adhesively sealed (PerkinElmer 6005199) prior to the addition of 50 μL MicroScint-20 liquid scintillation cocktail (PerkinElmer 6013621) to each well. A clear adhesive seal (TopSeal-A PLUS, PerkinElmer 6050185) was then applied to the top of each microplate and counted 1 minute/well on MicroBeta^2 system (PerkinElmer.

For experiment [2], the target named is aggregated beta amyloid in AD tissue (Homo sapiens, UniProt P05067). Kind of experiment: Competitive radioligand binding to pathological aggregated beta amyloid in AD tissue (Assay 2), displacement of [^3H]-105. The note with it: Aβ-rich AD frontal cortex homogenate, [^3H]-105, Kd 11.0 nM.
Protocol: Frozen human brain samples of Alzheimer's disease (AD) were purchased from Analytic Biological Services Inc. The samples were post-mortem tissue from donors with clinical diagnosis of AD and much of the white matter was dissected out of the frontal cortex in order to enrich the tissue preparations for gray matter. Brain homogenates of gray matter enriched frontal cortex were prepared by homogenizing the tissue in ice cold Phosphate Buffered Saline (PBS), pH 7.4 at 80 mg wet weight tissue per 1 ml for 45 seconds at 4° C., on setting 16 of Polytron. The homogenate was further diluted with ice cold PBS to 30 mg wet weight tissue per 1 ml and homogenized for an additional minute as described above. Homogenates were aliquoted in 5 ml/tube and stored at −70° C. until use.
Radioligand [^3H]-105, prepared as described in ACS Med. Chem. Lett., Vol. 2, pages 498-502, was used in this assay.
For Assay 2 unlabeled test compounds were dissolved in DMSO at 10 mM. Dilutions of tests compounds to various concentrations were made in 100% DMSO at 1000× final assay concentration and 0.225 μl aliquots were dispensed into assay plates. Brain homogenates were diluted to 0.5 mg/ml from original 30 mg/ml volume in Assay Buffer, and 200 μl were added to the assay plate for a final concentration of 100 ug wet weight/assay well. [^3H]-105 was prepared at 10× final concentration in Assay Buffer plus 20% DMSO and 25 μl was added to the assay plate for final assay concentration of 3.0 nM. The plates were incubated at 37° C. for 90 minutes. Unbound and bound ligand were separated by filtration of bound onto GF/B filter plates (pre-treated for 30 min with 0.1% PEI) using a Packard Filtermate and washing away unbound with 2.5 mil ice cold 5 mM Tris at pH 7.4. Filter plates were dried for 1 hr at 57° C. and 50 μl Microscint was added to each well of the plate. The plates were counted for ^3H cpm for 1 min per well using PerkinElmer TopCount.
Where [3] appears, read: insoluble fraction of PD brain homogenate, [^3H]-1000 3.0 nM, Kd 0.90 nM.

Sequence of aggregated beta amyloid in AD tissue (P05067 672-711 limits assumed): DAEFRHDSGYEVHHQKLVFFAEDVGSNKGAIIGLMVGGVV

Consider `COC[C@H]1CN(c2ccccn2)CCN1c1ncc(/C=C/c2ccc(-n3ccnc3)nc2)cn1` [Example 18, (R,E)-5-(2-(6-(1H-imidazol-1-yl)pyridin-3-yl)vinyl)-2-(2-(methoxymethyl)-4-(pyridin-2-yl)piperazin-1-yl)pyrimidine], for which the “Selectivity ratio (Assay 2/Assay 1)” value in experiment [1] is listed as 24000. Also, the pKi in experiment [1] (setting [3]) is 9.30; in experiment [2], not above 4.92.

As to `FCCOC[C@H]1CN(c2ncc(/C=C/c3ccc(-c4cnco4)nc3)cn2)CCN1c1ccncn1` [Example 42, (R,E)-5-(5-(2-(2-(3-((2-fluoroethoxy)methyl)-4-(pyrimidin-4-yl)piperazin-1-yl)pyrimidin-5-yl)vinyl)pyridin-2-yl)oxazole], in experiment [1], the “Selectivity ratio (Assay 2/Assay 1)” value stood at 1538. In addition, the pKi in experiment [1] (setting [3]) is 9.11; in experiment [2] it was not above 5.92.

Take `FCCOC[C@@H]1CN(c2ncc(C#Cc3ccc(-c4cnco4)nc3)cn2)CCN1c1ncncn1` [Example 62, (S)-5-(5-((2-(3-((2-fluoroethoxy)methyl)-4-(1,3,5-triazin-2-yl)piperazin-1-yl)pyrimidin-5-yl)ethynyl)pyridin-2-yl)oxazole]: in experiment [1], the “Selectivity ratio (Assay 2/Assay 1)” value worked out at 811. Besides, the pKi in experiment [1] (setting [3]) is 8.83; in experiment [2] it was not above 5.92.

For `FCCOC[C@H]1CN(c2ncc(C#Cc3ccc(-n4cnnc4)nc3)cn2)CCN1c1ncccn1` [Example 71, (R)-5-((6-(4H-1,2,4-triazol-4-yl)pyridin-3-yl)ethynyl)-2-(3-((2-fluoroethoxy)methyl)-4-(pyrimidin-2-yl)piperazin-1-yl)pyrimidine], the “Selectivity ratio (Assay 2/Assay 1)” value in experiment [1] came out at 293. In addition, the pKi in experiment [1] (setting [3]) is 8.39; in experiment [2] it was not above 5.92.

For `OC[C@H]1CN(c2cc(F)ncn2)CCN1c1ncc(/C=C/c2ccc(-n3ccnc3)nc2)cn1` [Example 15, (R,E)-(1-(5-(2-(6-(1H-imidazol-1-yl)pyridin-3-yl)vinyl)pyrimidin-2-yl)-4-(6-fluoropyrimidin-4-yl)piperazin-2-yl)methanol], in experiment [1], the “Selectivity ratio (Assay 2/Assay 1)” value was determined as 12000. Moreover, the pKi is 9.00 in experiment [1] (setting [3]) and not above 4.92 in experiment [2].

Regarding `COC[C@H]1CN(c2ncc(C#Cc3ccc(-n4ccnc4)nc3)cn2)CCN1c1nccc(F)n1` [Example 60, (R)-2-(4-(5-((6-(1H-imidazol-1-yl)pyridin-3-yl)ethynyl)pyrimidin-2-yl)-2-(methoxymethyl)piperazin-1-yl)-4-fluoropyrimidine], the “Selectivity ratio (Assay 2/Assay 1)” value in experiment [1] was found to be 538. For the same compound, the pKi in experiment [1] (setting [3]) is 8.65; in experiment [2], not above 5.92.

As to `Cn1cc(-c2ncc(C#Cc3cnc(N4CCN(c5ncccn5)[C@@H](COCCOCCOCCF)C4)nc3)cn2)cn1` [Example 82, (R)-2-(3-((2-(2-(2-fluoroethoxy)ethoxy)ethoxy)methyl)-4-(pyrimidin-2-yl)piperazin-1-yl)-5-((2-(1-methyl-1H-pyrazol-4-yl)pyrimidin-5-yl)ethynyl)pyrimidine], the “Selectivity ratio (Assay 2/Assay 1)” value in experiment [1] is 840. Besides, the pKi is 8.85 in experiment [1] (setting [3]) and not above 5.92 in experiment [2].

Consider `Cc1cn(-c2ccc(/C=C/c3cnc(N4CCN(c5ncccn5)[C@@H](COCCF)C4)nc3)cn2)cn1` [Example 40, (R,E)-2-(3-((2-fluoroethoxy)methyl)-4-(pyrimidin-2-yl)piperazin-1-yl)-5-(2-(6-(4-methyl-1H-imidazol-1-yl)pyridin-3-yl)vinyl)pyrimidine], for which, in experiment [1], the “Selectivity ratio (Assay 2/Assay 1)” value is given as 2857 and the pKi was 9.38. This compound gave a pKi in experiment [2] not above 5.92.

For the compound `COC[C@H]1CN(c2ccnc(F)c2)CCN1c1ncc(/C=C/c2ccc(-n3ccnc3)nc2)cn1` [Example 29, (R,E)-5-(2-(6-(1H-imidazol-1-yl)pyridin-3-yl)vinyl)-2-(4-(2-fluoropyridin-4-yl)-2-(methoxymethyl)piperazin-1-yl)pyrimidine], in experiment [1], the “Selectivity ratio (Assay 2/Assay 1)” value worked out at 180. In addition, the pKi in experiment [1] (setting [3]) was 9.00; in experiment [2], 6.74.

On to `OC(CF)COC[C@H]1CN(c2ncc(C#Cc3ccc(-c4cnco4)nc3)cn2)CCN1c1ncncn1` (stereo partly drawn) [Example 67, 1-fluoro-3-(((R)-4-(5-((6-(oxazol-5-yl)pyridin-3-yl)ethynyl)pyrimidin-2-yl)-1-(1,3,5-triazin-2-yl)piperazin-2-yl)methoxy)propan-2-ol], for which the “Selectivity ratio (Assay 2/Assay 1)” value in experiment [1] was found to be 798. For the same compound, the pKi in experiment [1] (setting [3]) is 8.82; in experiment [2], not above 5.92.

In the case of `COCCOC[C@H]1CN(c2ncc(C#Cc3ccc(-n4ccnc4)nc3)c(F)n2)CCN1c1ncncn1` [Example 80, (R)-2-(4-(5-((6-(1H-imidazol-1-yl)pyridin-3-yl)ethynyl)-4-fluoropyrimidin-2-yl)-2-((2-methoxyethoxy)methyl)piperazin-1-yl)-1,3,5-triazine], the “Selectivity ratio (Assay 2/Assay 1)” value in experiment [1] was determined as 794. The pKi in experiment [1] (setting [3]) was 8.82; in experiment [2], not above 5.92.

On to `FCCOC[C@H]1CN(c2ncccn2)CCN1c1ncc(/C=C/c2ccc(-n3ccnc3)nc2)cn1` [Example 30, (R,E)-5-(2-(6-(1H-imidazol-1-yl)pyridin-3-yl)vinyl)-2-(2-((2-fluoroethoxy)methyl)-4-(pyrimidin-2-yl)piperazin-1-yl)pyrimidine], for which the “Selectivity ratio (Assay 2/Assay 1)” value in experiment [1] stood at 12000. Further, the negative-log Ki (pKi) in experiment [1] (setting [3]) was 9.00; in experiment [2], not above 4.92.

In the case of `COC[C@H]1CN(c2ncc(/C=C/c3ccc(-n4ccnc4)nc3)cn2)CCN1c1ncc(F)cn1` [Example 27, (R,E)-5-(2-(6-(1H-imidazol-1-yl)pyridin-3-yl)vinyl)-2-(4-(5-fluoropyrimidin-2-yl)-3-(methoxymethyl)piperazin-1-yl)pyrimidine], the “Selectivity ratio (Assay 2/Assay 1)” value in experiment [1] is recorded as 44. In addition, the pKi in experiment [1] (setting [3]) is 8.74; in experiment [2], 7.10.

In the case of `COC[C@H]1CN(c2ncc(C#Cc3ccc(N4CC(F)C4)nc3)cn2)CCN1c1ncccn1` [Example 68, (R)-5-((6-(3-fluoroazetidin-1-yl)pyridin-3-yl)ethynyl)-2-(3-(methoxymethyl)-4-(pyrimidin-2-yl)piperazin-1-yl)pyrimidine], the “Selectivity ratio (Assay 2/Assay 1)” value in experiment [1] turned out to be 469. In addition, the pKi was 8.59 in experiment [1] (setting [3]) and not above 5.92 in experiment [2].

Regarding `COC[C@H]1CN(c2ncc(C#Cc3ccc(N4CC[C@H](F)C4)nc3)cn2)CCN1c1ncccn1` [Example 72, 5-((6-((S)-3-fluoropyrrolidin-1-yl)pyridin-3-yl)ethynyl)-2-((R)-3-(methoxymethyl)-4-(pyrimidin-2-yl)piperazin-1-yl)pyrimidine], the “Selectivity ratio (Assay 2/Assay 1)” value in experiment [1] is 617. Further, the pKi was 8.71 in experiment [1] (setting [3]) and not above 5.92 in experiment [2].

Regarding `COC[C@H]1CN(c2ncc(C#Cc3ccc(-c4cnn(CCOCCF)c4)nc3)cn2)CCN1c1ncncn1` [Example 77, (R)-2-(4-(5-((6-(1-(2-(2-fluoroethoxy)ethyl)-1H-pyrazol-4-yl)pyridin-3-yl)ethynyl)pyrimidin-2-yl)-2-(methoxymethyl)piperazin-1-yl)-1,3,5-triazine], the “Selectivity ratio (Assay 2/Assay 1)” value in experiment [1] was 705. In addition, the pKi in experiment [1] (setting [3]) was 8.77; in experiment [2] it was not above 5.92.

As for `COC[C@H]1CN(c2cc(Cl)ncn2)CCN1c1ncc(/C=C/c2ccc(-n3ccnc3)nc2)cn1` [Example 14, (R,E)-5-(2-(6-(1H-imidazol-1-yl)pyridin-3-yl)vinyl)-2-(4-(6-chloropyrimidin-4-yl)-2-(methoxymethyl)piperazin-1-yl)pyrimidine], the “Selectivity ratio (Assay 2/Assay 1)” value in experiment [1] worked out at 9231. The pKi was 8.89 in experiment [1] (setting [3]) and not above 4.92 in experiment [2].

`COC[C@H]1CN(c2ncc(/C=C/c3ccc(-n4ccnc4)nc3)cn2)CCN1c1ccnc(F)n1` [Example 34, (R,E)-4-(4-(5-(2-(6-(1H-imidazol-1-yl)pyridin-3-yl)vinyl)pyrimidin-2-yl)-2-(methoxymethyl)piperazin-1-yl)-2-fluoropyrimidine]: the “Selectivity ratio (Assay 2/Assay 1)” value in experiment [1] is 6667. Further, the pKi was 8.74 in experiment [1] (setting [3]) and not above 4.92 in experiment [2].

In the case of `Cn1cc(-c2ncc(C#Cc3cnc(N4CCN(c5ncccn5)[C@@H](COCCF)C4)nc3)cn2)cn1` [Example 51, (R)-2-(3-((2-fluoroethoxy)methyl)-4-(pyrimidin-2-yl)piperazin-1-yl)-5-((2-(1-methyl-1H-pyrazol-4-yl)pyrimidin-5-yl)ethynyl)pyrimidine], the “Selectivity ratio (Assay 2/Assay 1)” value in experiment [1] was determined as 654. Also, the figures for the pKi in experiment [1] (setting [3]) and in experiment [2] were 8.74 and not above 5.92, respectively.
